Test: Accelerated stability study (solid form checked by X-ray powder diffraction)
Type: physicochemical
Details: after 12 days at room temperature and relative humidity of 75%±5%
Experimental: The X-ray diffraction pattern was recorded on a Bruker D2-Phaser diffractometer. The X-ray generator was set to 30 kV and 10 mA, using Cuk as radiation source. The sample was prepared in a sample holder and irradiated for an irradiation length of 10 mm. The data were recorded between 2 and 50 2θ degrees every 0.02 2θ degrees, with a recording time of 3 seconds per 2θ degree.
The amorphous solid dispersion prepared according to Example 1, and ferric maltol in amorphous form, prepared according to the procedure reported in Example 1 but without the addition of Soluplus®, underwent an accelerated stability study.

For `Cc1occc(=O)c1[O-].Cc1occc(=O)c1[O-].Cc1occc(=O)c1[O-].[Fe+3]` [ferric maltol in amorphous form, 3-hydroxy-2-methyl-4H-pyran-4-one: iron (III) (3:1)], the “solid form after storage (X-ray diffractogram)” value was “attributable to ferric maltol Form I” and the “solid form after storage (X-ray diffractogram)” value (listed as ferric maltol) was “tends to be converted, at least partly, to a crystalline structure”.

From patent US20240358748A1, “AMORPHOUS DISPERSION OF FERRIC MALTOL AND THE PREPARATION PROCESS THEREOF” (Indena S.P.A., priority 2021, published 2024)
